The NIST ThermoML archive (doi:10.1021/je049688b)
± gives the expanded uncertainty stated by the source.

Details: Liquid, Ebulliometric method (Recirculating still)

| SMILES | vapor or sublimation pressure (329.35 K) | vapor or sublimation pressure (337.75 K) |
| --- | --- | --- |
| CC(C)=O [acetone] | 101 ± 1.3 kPa |  |
| CO [methanol] |  | 101 ± 1.3 kPa |
